According to patent US10322118B2, “Compounds and methods for inhibiting Cif virulence factor” (priority 2012, dated 2019):
Values joined by “and” are separate entries in the source; they are usually repeats but may differ in a detail not shown here. Equal values may be shown once. Where a name gives a salt, the structure may show the parent alone. Read-outs that look alike come from different tables or passages of the source.

Assays:
[1] = molecular target: T1, Cif (Pseudomonas aeruginosa (strain UCBPP-PA14), UniProt A0A0H2ZD27); assay: Fluorescent-based Cif inhibitory assay (CMNGC)
T1 sequence (A0A0H2ZD27 25-319 limits assumed): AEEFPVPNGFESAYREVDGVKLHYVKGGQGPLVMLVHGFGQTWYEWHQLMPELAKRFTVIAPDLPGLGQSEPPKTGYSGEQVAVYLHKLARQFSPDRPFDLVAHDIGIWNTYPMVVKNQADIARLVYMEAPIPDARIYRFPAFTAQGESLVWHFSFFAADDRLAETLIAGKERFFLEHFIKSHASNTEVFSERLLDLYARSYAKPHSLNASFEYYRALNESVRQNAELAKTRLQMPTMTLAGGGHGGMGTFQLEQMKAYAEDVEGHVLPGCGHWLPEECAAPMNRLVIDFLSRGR
Text: Cyano (6-methoxynaphthalen-2-yl) methyl glycidyl carbonate (CMNGC) was used as a fluorescent reporter substrate.
Reported IC50 values are the average of triplicates with at least two data points above and at least two below the IC50.

[2] = molecular target: T1, Cif; assay: Radioactivity epoxide hydrolase assay with tritium-labeled cis-stilbene oxide (CSO); type: biochemical; set-up: concentration or dose not given beside the values; conditions: for Inhibition (%): radioactivity assay, CSO substrate, initial screen and retest (Table 8)
[3] = molecular target: T1, Cif; assay: Screen of soluble epoxide hydrolase inhibitors for Cif inhibition; type: biochemical
Experimental: To identify additional inhibitors of the Cif enzyme, further screening assays were conducted.

[4] = molecular target: T1, Cif; assay: Secondary screen (sextuplicate) with fluorogenic substrate CMNGC; type: biochemical; conditions: for % Inhibition, Mean ± SD / % Inhibition, plate 1 / % Inhibition, plate 2 / % Inhibition, plate 3 / % Inhibition, plate 4 / % Inhibition, plate 5 / % Inhibition, plate 6: secondary screen, 10 μM; for % Inhibition, Mean ± SD: mean of six plates; for % Inhibition, plate 1: plate number 1; for % Inhibition, plate 2: plate number 2; for % Inhibition, plate 3: plate number 3; for % Inhibition, plate 4: plate number 4; for % Inhibition, plate 5: plate number 5; for % Inhibition, plate 6: plate number 6;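 on all read-outs here: purified enzyme assay in 96-well plates, 200 µL volume, fluorescence recorded each minute across a 60 min reaction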
Experimental: All high throughput screening assays were performed using 96-well plates, a 200 μL reaction volume, and a fluorescent plate reader. […] The fluorescent signal was measured after allowing the enzyme reaction to proceed for 60 minutes. The secondary screen was performed using the same conditions as the primary screen, except that fluorescent readings were taken every minute for the 60-minute reaction.
Subsequently, the filtered primary hits were retested to validate the observed inhibitory effect.

[5] = molecular target: T1, Cif; assay: Primary high throughput screen with fluorogenic substrate CMNGC; type: biochemical; conditions: for inhibition at 10 µM / % Inhibition: primary screen, test compounds at 10 μM, 1 μM Cif, 25 μM CMNGC, 60 minutes;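 on all read-outs here: fluorescence of 200 µL reactions in 96-well plates read on a plate reader, inhibitor at tenfold molar excess over Cif enzyme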
Experimental: All high throughput screening assays were performed using 96-well plates, a 200 μL reaction volume, and a fluorescent plate reader. […] The fluorescent signal was measured after allowing the enzyme reaction to proceed for 60 minutes.
A library of 1600 FDA-approved compounds was screened for Cif inhibitory activity.
The screen was performed with only a 10-fold stoichiometric excess of inhibitor over Cif enzyme.

[6] = Table 18 (biphenyl R series), CMNGC, average of triplicates
[7] = Table 17 (R6-R9 series), CMNGC, average of triplicates
[8] = read-out: % Inhibition, Mean ± SD
[9] = read-out: % Inhibition, plate 1
[10] = read-out: % Inhibition, plate 2
[11] = read-out: % Inhibition, plate 3
[12] = read-out: % Inhibition, plate 4
[13] = read-out: % Inhibition, plate 5
[14] = read-out: % Inhibition, plate 6

CCC(=O)Nc1cc(Cl)c(Oc2ccc(O)c(-c3ccc(C#N)cc3)c2)c(Cl)c1 [Compound 8e]
IC50 [1, 6]: 11.9 µM

C#Cc1cc(Oc2c(Cl)cc(NC(=O)CC(=O)OCC)cc2Cl)ccc1O [Compound 1p]
IC50 [1, 7]: 2.9 µM

CCOC(=O)CC(=O)Nc1ccc(Oc2ccc(O)c(C(C)C)c2)c(Cl)c1 [Compound 1j]
IC50 [1, 7]: 11.6 µM

NC(Cc1ccc(Oc2ccc(O)c(I)c2)c(I)c1)C(=O)O (stereo not shown) [Entry 4]
IC50 [1]: 80 ± 10 µM

O=C(NC1CCC(Oc2ccc(C(=O)O)cc2)CC1)NC12CC3CC(CC(C3)C1)C2 (stereo not shown) [Entry 12]
Inhibition (%) [2]: 14%

CCOC(=O)CC(=O)Nc1cc(Cl)c(Oc2ccc(O)c(C(C)C)c2)c(Cl)c1 [Compound 1i]
IC50 [1, 7]: 3.8 µM

CCC(=O)Nc1cc(Cl)c(Oc2ccc(O)c(-c3cccc(C(N)=O)c3)c2)c(Cl)c1 [Compound 8d]
IC50 [1, 6]: 0.46 µM

CCOC(=O)CC(=O)Nc1cc(Cl)c(Oc2ccc(O)c(Br)c2)c(Cl)c1 [Compound 1l]
IC50 [1, 7]: 4.9 µM

CCC(=O)N1CCC(NC(=O)Nc2ccc([N+](=O)[O-])cc2)CC1 [Entry 10]
inhibition at 10 µM [3]: 44%

CCC(=O)Nc1cc(Cl)c(Oc2ccc(O)c(-c3ccc(C(=O)NC)cc3)c2)c(Cl)c1 [Compound 8g]
IC50 [1, 6]: 1.7 µM

O=C(Nc1ccc(OC(F)(F)F)cc1)NC1CCC(Oc2ccc(C(=O)O)cc2)CC1 (stereo not shown) [Entry 15]
Inhibition (%) [2]: 17%

NC(Cc1cc(I)c(Oc2cc(I)c(O)c(I)c2)c(I)c1)C(=O)O (stereo not shown) [Entry 6]
IC50 [1]: > 100 µM

O=C(Nc1ccc(Cl)cc1)Nc1ccc(Cl)cc1 [Entry 17]
Inhibition (%) [2]: 7%

CC(=O)N1CCC(NC(=O)NC2CCCCCC2)CC1 [Entry 14]
Inhibition (%) [2]: 6%

O=C(NC(=O)c1c(F)cccc1F)Nc1cc(Cl)cc(Cl)c1 [Entry 4]
inhibition at 10 µM [3]: 50%

CCOC(=O)CC(=O)Nc1cc(Cl)c(Oc2ccc(O)c(C(F)(F)F)c2)c(Cl)c1 [Compound 1n]
IC50 [1, 7]: 3 µM

CCC(=O)Nc1cc(Cl)c(Oc2ccc(O)c(-c3ccc(C(=O)O)cc3)c2)c(Cl)c1 [Compound 8b]
IC50 [1, 6]: 10.5 µM

COC(=O)c1ccc(NC(=O)NC23CC4CC(CC(C4)C2)C3)cc1O [Entry 13]
Inhibition (%) [2]: 18%

CCC(=O)Nc1cc(Cl)c(Oc2ccc(O)c(-c3ccc(S(N)(=O)=O)cc3)c2)c(Cl)c1 [Compound 8l]
IC50 [1, 6]: 2 µM

CCOC(=O)CC(=O)Nc1cc(Br)c(Oc2ccc(OC)c(C(C)C)c2)c(Br)c1 [Compound 1h]
Cif inhibitory activity at 50 μM [1]: fail to show inhibitory activity
IC50 [1, 7]: > 50 µM

CCOC(=O)CC(=O)Nc1cc(Cl)c(Oc2ccc(O)cc2Br)c(Cl)c1 [Compound 1q]
IC50 [1, 7]: 29.3 µM

CCOC(=O)CC(=O)Nc1cc(Cl)c(Oc2ccc(O)cc2)c(Cl)c1 [Compound 1k]
Cif inhibitory activity at 50 μM [1]: showed no inhibition
IC50 [1, 7]: > 50 µM

Cc1cc(C)cc(NC(=O)NC(=O)c2c(F)cccc2F)c1 [Entry 3]
inhibition at 10 µM [3]: 39%

CCC(=O)Nc1cc(Cl)c(Oc2ccc(O)c(-c3ccc(C(C)=O)cc3)c2)c(Cl)c1 [Compound 8k]
IC50 [1, 6]: 0.35 µM

CCCCCCCCCCCCCCOS(=O)(=O)O [Sodium tetradecyl sulfate]
inhibition at 10 µM [4, 8]: 9 ± 4%
inhibition at 10 µM [4, 9]: 9%
inhibition at 10 µM [4, 10]: 4%
inhibition at 10 µM [4, 11]: 12%
inhibition at 10 µM [4, 12]: 12%
inhibition at 10 µM [4, 13]: 13%
inhibition at 10 µM [4, 14]: 5%
inhibition at 10 µM [5]: 78%

CC(=O)[C@@]12O[C@](C)(c3ccccc3)O[C@@H]1C[C@H]1[C@@H]3CCC4=CC(=O)CC[C@]4(C)[C@H]3CC[C@@]12C [Algestone acetophenide]
% Inhibition, Mean ± SD [4]: −3 ± 5%
% Inhibition, plate 1 [4]: −5%
% Inhibition, plate 2 [4]: −2%
% Inhibition, plate 3 [4]: 0%
% Inhibition, plate 4 [4]: −2%
% Inhibition, plate 5 [4]: 3%
% Inhibition, plate 6 [4]: −10%
% Inhibition [5]: 38%

CCOC(=O)CC(=O)Nc1cc(Cl)c(Oc2ccc(O)c(I)c2)c(Cl)c1 [Compound 1m]
IC50 [1, 7]: 3.8 µM

CCN(CC)CCOc1ccc2c(c1)C(=O)c1cc(OCCN(CC)CC)ccc1-2 [Tilorone]
inhibition at 10 µM [4, 8]: 6 ± 4%
inhibition at 10 µM [4, 9]: 4%
inhibition at 10 µM [4, 10]: 5%
inhibition at 10 µM [4, 11]: 5%
inhibition at 10 µM [4, 12]: 11%
inhibition at 10 µM [4, 13]: 10%
inhibition at 10 µM [4, 14]: 0%
inhibition at 10 µM [5]: 36%

CCC(=O)Nc1cc(Cl)c(Oc2ccc(O)c(-c3cccc(C#N)c3)c2)c(Cl)c1 [Compound 8f]
IC50 [1, 6]: 0.58 µM

CCOC(=O)CC(=O)Nc1cc(Br)c(Oc2cccc(C(C)C)c2)c(Br)c1 [Compound 1g]
Cif inhibitory activity at 50 μM [1]: fail to show inhibitory activity
IC50 [1, 7]: > 50 µM

NCC(O)c1ccc(O)cc1 (stereo not shown) [Octopamine hydrochloride]
inhibition at 10 µM [4, 8]: 11 ± 6%
inhibition at 10 µM [4, 9]: 1%
inhibition at 10 µM [4, 10]: 6%
inhibition at 10 µM [4, 11]: 12%
inhibition at 10 µM [4, 12]: 9%
inhibition at 10 µM [4, 13]: 18%
inhibition at 10 µM [4, 14]: 17%
inhibition at 10 µM [5]: 42%

C=C(NC(=O)C(=C)NC(=O)c1csc(C2=N[C@@H]3c4csc(n4)[C@H]4NC(=O)c5csc(n5)[C@H]([C@](C)(O)[C@@H](C)O)NC(=O)[C@H]5CSC(=N5)/C(=C/C)NC(=O)[C@H]([C@@H](C)O)NC(=O)c5csc(n5)[C@]3(CC2)NC(=O)[C@H](C)NC(=O)C(=C)NC(=O)[C@H](C)NC(=O)[C@H]([C@@H](C)CC)N[C@@H]2C=Cc3c([C@H](C)O)cc(nc3[C@H]2O)C(=O)O[C@@H]4C)n1)C(N)=O [Thiostrepton]
inhibition at 10 µM [4, 8]: 28 ± 12%
inhibition at 10 µM [4, 9]: 14%
inhibition at 10 µM [4, 10]: 15%
inhibition at 10 µM [4, 11]: 25%
inhibition at 10 µM [4, 12]: 27%
inhibition at 10 µM [4, 13]: 43%
inhibition at 10 µM [4, 14]: 42%
inhibition at 10 µM [5]: 46%

CS(=O)(=O)N1CCC(NC(=O)Nc2ccc(OC(F)(F)F)cc2)CC1 [Entry 16]
Inhibition (%) [2]: 14%

C=CC1=C(C)c2cc3[nH]c(cc4nc(cc5[nH]c(cc1n2)c(C)c5CCC(=O)O)C(CCC(=O)O)=C4C)c(C)c3C=C [Protoporphyrin ix]
inhibition at 10 µM [4, 8]: 20 ± 7%
inhibition at 10 µM [4, 9]: 12%
inhibition at 10 µM [4, 10]: 16%
inhibition at 10 µM [4, 11]: 21%
inhibition at 10 µM [4, 12]: 18%
inhibition at 10 µM [4, 13]: 28%
inhibition at 10 µM [4, 14]: 29%
inhibition at 10 µM [5]: 46%

CC(=O)CC(c1ccccc1)c1c(O)c2ccccc2oc1=O (stereo not shown) [Warfarin]
inhibition at 10 µM [4, 8]: 15 ± 3%
inhibition at 10 µM [4, 9]: 12%
inhibition at 10 µM [4, 10]: 12%
inhibition at 10 µM [4, 11]: 17%
inhibition at 10 µM [4, 12]: 15%
inhibition at 10 µM [4, 13]: 20%
inhibition at 10 µM [4, 14]: 17%
inhibition at 10 µM [5]: 32%

Nc1nc(N)c2nc(-c3ccccc3)c(N)nc2n1 [Triamterene]
inhibition at 10 µM [4, 8]: 19 ± 5%
inhibition at 10 µM [4, 9]: 15%
inhibition at 10 µM [4, 10]: 17%
inhibition at 10 µM [4, 11]: 18%
inhibition at 10 µM [4, 12]: 21%
inhibition at 10 µM [4, 13]: 28%
inhibition at 10 µM [4, 14]: 16%
inhibition at 10 µM [5]: 35%

C[N+](C)(C)CC(=O)O [Betaine hydrochloride]
inhibition at 10 µM [4, 8]: 13 ± 6%
inhibition at 10 µM [4, 9]: 6%
inhibition at 10 µM [4, 10]: 10%
inhibition at 10 µM [4, 11]: 9%
inhibition at 10 µM [4, 12]: 17%
inhibition at 10 µM [4, 13]: 20%
inhibition at 10 µM [4, 14]: 18%
inhibition at 10 µM [5]: 33%

CCCCCCCCCCCCCCCC[N+](C)(C)C.[Br-] [Cetrimonium bromide]
% Inhibition, Mean ± SD [4]: 2 ± 4%
% Inhibition, plate 1 [4]: 1%
% Inhibition, plate 2 [4]: −1%
% Inhibition, plate 3 [4]: −4%
% Inhibition, plate 4 [4]: 3%
% Inhibition, plate 5 [4]: 8%
% Inhibition, plate 6 [4]: 2%
% Inhibition [5]: 44%

CCC(=O)Nc1cc(Cl)c(Oc2ccc(O)c(-c3ccc(NC(N)=O)cc3)c2)c(Cl)c1 [Compound 8i]
IC50 [1, 6]: 0.29 µM

CN(C)CCCN1c2ccccc2CCc2ccc(Cl)cc21 [Clomipramine hydrochloride]
inhibition at 10 µM [4, 8]: 5 ± 4%
inhibition at 10 µM [4, 9]: 0%
inhibition at 10 µM [4, 10]: 3%
inhibition at 10 µM [4, 11]: 9%
inhibition at 10 µM [4, 12]: 3%
inhibition at 10 µM [4, 13]: 9%
inhibition at 10 µM [4, 14]: 7%
inhibition at 10 µM [5]: 51%

Cc1cccc(Nc2ccccc2C(=O)O)c1C [Mefenamic acid]
inhibition at 10 µM [4, 8]: 16 ± 8%
inhibition at 10 µM [4, 9]: 5%
inhibition at 10 µM [4, 10]: 24%
inhibition at 10 µM [4, 11]: 17%
inhibition at 10 µM [4, 12]: 22%
inhibition at 10 µM [4, 13]: 20%
inhibition at 10 µM [4, 14]: 6%
inhibition at 10 µM [5]: 48%

O=C(CCCCCCC(=O)Nc1ccccc1)NO [Vorinostat]
inhibition at 10 µM [4, 8]: 13 ± 6%
inhibition at 10 µM [4, 9]: 5%
inhibition at 10 µM [4, 10]: 13%
inhibition at 10 µM [4, 11]: 8%
inhibition at 10 µM [4, 12]: 14%
inhibition at 10 µM [4, 13]: 18%
inhibition at 10 µM [4, 14]: 22%
inhibition at 10 µM [5]: 35%

Cc1nccnc1N1CCCCC1 [Modaline sulfate]
inhibition at 10 µM [4, 8]: 12 ± 3%
inhibition at 10 µM [4, 9]: 10%
inhibition at 10 µM [4, 10]: 7%
inhibition at 10 µM [4, 11]: 12%
inhibition at 10 µM [4, 12]: 12%
inhibition at 10 µM [4, 13]: 13%
inhibition at 10 µM [4, 14]: 17%
inhibition at 10 µM [5]: 34%

O=C(Nc1ccc(Cl)c(Cl)c1)Nc1ccc(Cl)c(Cl)c1 [Entry 18, N,N′-di-(3,4-dichlorophenyl) urea]
Inhibition (%) [2]: 25.5%
inhibition of Cif enzyme activity ([2]; secondary screen of radioactivity assay, P=0.004): 25%
% I, Positive Control Inhibitor, Average ([5]; 10 μM DCPU positive control, average of 20 plates): 20%
% I (percent of the total enzyme activity inhibited), Positive Control Inhibitor ([5]; 10 μM DCPU positive control, per plate of primary screen, listed as Positive Control Inhibitor): 15.2% and 30.0%
